Measured values taken from PubChem BioAssay (NCI).
Several values for one entry are separate records, joined by “and”; a condition that tells them apart may be missing. Equal values may be shown once.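 Exposure lasted 48 hours, with cells grown in 96-well plates and compounds tested at five concentrations. GI50 marks 50% less growth. The concentration for full growth arrest is given as TGI.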

Tests used:
Test in all cases: DTP human tumour cell line panel, 48 h
SNB-19 CNS = tested on: SNB-19 CNS
COLO 205 colon = tested on: COLO 205 colon
OVCAR-4 ovarian = tested on: OVCAR-4 ovarian
LOX IMVI melanoma = tested on: LOX IMVI melanoma
SNB-75 CNS = tested on: SNB-75 CNS
HL-60(TB) leukemia = tested on: HL-60(TB) leukemia
OVCAR-8 ovarian = tested on: OVCAR-8 ovarian
A549 NSCLC = tested on: A549 NSCLC
OVCAR-5 ovarian = tested on: OVCAR-5 ovarian
K-562 leukemia = tested on: K-562 leukemia

Row | SMILES | TGI (SNB-19 CNS) | TGI (COLO 205 colon) | TGI (OVCAR-4 ovarian) | TGI (LOX IMVI melanoma) | GI50 (SNB-75 CNS) | TGI (SNB-75 CNS) | GI50 (HL-60(TB) leukemia) | TGI (HL-60(TB) leukemia) | TGI (OVCAR-8 ovarian) | TGI (A549 NSCLC) | TGI (OVCAR-5 ovarian) | GI50 (K-562 leukemia) | TGI (K-562 leukemia)
1 | CSC1CC2C(CC1(C)O)C2(C)C (stereo not given) | > 100 µM | > 100 µM | > 100 µM | > 100 µM | > 100 µM and 47.9 µM | > 100 µM | 19 µM and > 100 µM | 70.5 µM and > 100 µM | > 100 µM | > 100 µM | > 100 µM | 49.7 µM and > 100 µM | > 100 µM
2 | O=C(Nc1cccc2cnccc12)c1cc2c(cc1Cl)Sc1nccn1S2(=O)=O | 65.3 µM | 30.8 µM | 87.1 µM | 31.8 µM |  | 47.4 µM |  | 21.8 µM | 62.7 µM | > 100 µM | 77.8 µM |  | > 100 µM
3 | COc1ccc(Nc2nc3ccc(C(F)(F)F)cc3nc2C(=O)O)cc1OC | > 100 µM | > 100 µM | > 100 µM | > 100 µM |  | 81.5 µM |  | 64.1 µM | > 100 µM |  | > 100 µM |  | > 100 µM
4 | CC(=O)OC[C@]1(C(=O)C(O)c2ccoc2)[C@H](C)CC[C@@]23COC(=O)C2=CCC[C@@H]31 (stereo not given in full) | > 10 µM | > 10 µM | > 10 µM | > 10 µM |  | > 10 µM |  | > 10 µM | > 10 µM | > 10 µM | > 10 µM |  | 
5 | O=c1c2ncn(C3CC(O)C(CO)O3)c2nnn1Cc1ccccc1[N+](=O)[O-] (stereo not given) | > 100 µM | > 100 µM | > 100 µM | > 100 µM |  | > 100 µM |  | > 100 µM | > 100 µM | > 100 µM | > 100 µM |  | > 100 µM
6 | CCOC1CC(=O)c2c(Br)sc(Br)c21 (stereo not given) | 51.9 µM | 38.4 µM |  | 42.2 µM |  | 35.7 µM |  | 48.6 µM | 38.5 µM | 95.1 µM | 45.3 µM |  | 41.5 µM
7 | CC1(C)C(c2ccccc2)=[N+]([O-])C(C)(C)N1O | > 10 µM | > 10 µM | > 10 µM | > 10 µM |  | > 10 µM |  | > 10 µM | > 10 µM | > 10 µM | > 10 µM |  | 
8 | O=[N+]([O-])C(=C(N1CCCCC1)N1CCCCC1)/C(Cl)=C(\Cl)Br | 87.1 µM | 38.7 µM | 66.5 µM | 44.9 µM |  | 34.4 µM |  | 37.9 µM | 35 µM | > 100 µM |  |  | 46.2 µM
9 | CC(=O)OC(C)c1cc2c(s1)C(=O)c1sccc1C2=O (stereo not given) | 2.82 µM | 3.59 µM | 3.5 µM | > 100 µM |  | 2.63 µM |  | > 100 µM | 4.66 µM | 5.29 µM | 3.3 µM |  | > 100 µM
10 | O=C(O)[C@@H]1C[C@@H](O)CN1C(=O)OCc1ccccc1 | > 100 µM | > 100 µM | > 100 µM | > 100 µM |  | > 100 µM |  | > 100 µM | > 100 µM | > 100 µM | > 100 µM |  | > 100 µM
11 | Nc1c2ccccc2nc2c1ccc1ncccc12 | > 100 µM | > 100 µM | 63 µM | 53.5 µM |  | 99.4 µM |  | 20.4 µM | > 100 µM | > 100 µM | > 100 µM |  | 88.6 µM
12 | Cc1ccccc1OC(C)C(=O)NN1C(=O)CC(=O)N(c2ccc(Cl)cc2)C1=S (stereo not given) | > 100 µM | 68.3 µM | > 100 µM | > 100 µM |  | > 100 µM |  | 39.8 µM | > 100 µM | > 100 µM | > 100 µM |  | > 100 µM
13 | O=C1c2ccccc2CN1c1ccc(O)cc1 | > 100 µM | > 100 µM | > 100 µM | > 100 µM |  |  |  | > 100 µM | > 100 µM | > 100 µM | > 100 µM |  | > 100 µM
14 | CCC1=CCC23C(=O)C=CC(=O)C2(C1)C(=O)c1cccc(OC)c1C3=O (stereo not given) | 53.7 µM | 28.4 µM | 26.1 µM | 29.9 µM |  | 33.5 µM |  | 7.36 µM | 29.9 µM | 51.5 µM | 31.8 µM |  | 72.4 µM
15 | NC(CSCc1ccccc1)C(=O)O (stereo not given) | > 100 µM | > 100 µM | > 100 µM | > 100 µM |  | > 100 µM |  | > 100 µM | > 100 µM | > 100 µM | > 100 µM |  | > 100 µM
16 | C=C(Cl)/C(=C\Cl)CCC(Br)C(C)C (stereo not given) | > 100 µM | > 100 µM | 95.5 µM | 31.4 µM |  | > 100 µM |  | > 100 µM |  | > 100 µM | > 100 µM |  | > 100 µM
17 | CC(CC(C#N)(c1ccccc1)c1ccccc1)N1CCCCC1 (stereo not given) | > 100 µM | 32.9 µM | > 100 µM | 33.5 µM |  | > 100 µM |  | 42.3 µM | > 100 µM | > 100 µM | > 100 µM |  | 45.5 µM
18 | CCN(CC)CCNc1ccc2nnn3c4ccc(OC)cc4c(=O)c1c23 | 25.9 µM | 20.4 µM | 19.9 µM | 11.1 µM |  | 21 µM |  | 22.3 µM | 19.9 µM | 19.4 µM | 23.7 µM |  | 20.1 µM
19 | O=C1/C(=C/c2ccccc2S)N=C(c2ccccc2)N1c1nc2ccc(Sc3ccccc3)cc2[nH]1 | > 100 µM | 34.6 µM | > 100 µM | > 100 µM |  | 93.5 µM |  | 52.1 µM | > 100 µM | > 100 µM | > 100 µM |  | > 100 µM
20 | CCC(C(=O)O)c1ccc(OCc2ccccc2)cc1 (stereo not given) | > 100 µM | > 100 µM | > 100 µM | > 100 µM |  | > 100 µM |  | > 100 µM |  | > 100 µM | > 100 µM |  | > 100 µM
21 | O=C1NCCCc2nonc21 | > 100 µM | > 100 µM | > 100 µM | > 100 µM |  | > 100 µM |  | > 100 µM | > 100 µM | > 100 µM | > 100 µM |  | > 100 µM
22 | COc1cc2c(cc1OCCCCOc1cc(-c3ccc(F)cc3)nc(C)n1)N=C[C@@H]1CCCN1C2=O | 4.75 µM | 1.17 µM | 2.3 µM | 0.663 µM |  | 17.8 µM |  | 28.7 µM | 6.6 µM | 10.8 µM | 10.9 µM |  | 9.5 µM
